Results from patent publication EP4667458A1 (Kanaph Therapeutics Inc., priority 2023, dated 2024).

What follows are compounds tested against T1, KRAS^G12C::SOS1 (Homo sapiens, UniProt Q07889) (assay: KRAS G12C::SOS1 protein-protein interaction (PPI) inhibition assay (HTRF binding kit)). Details: not given.
T1 sequence (Q07889 1-1333): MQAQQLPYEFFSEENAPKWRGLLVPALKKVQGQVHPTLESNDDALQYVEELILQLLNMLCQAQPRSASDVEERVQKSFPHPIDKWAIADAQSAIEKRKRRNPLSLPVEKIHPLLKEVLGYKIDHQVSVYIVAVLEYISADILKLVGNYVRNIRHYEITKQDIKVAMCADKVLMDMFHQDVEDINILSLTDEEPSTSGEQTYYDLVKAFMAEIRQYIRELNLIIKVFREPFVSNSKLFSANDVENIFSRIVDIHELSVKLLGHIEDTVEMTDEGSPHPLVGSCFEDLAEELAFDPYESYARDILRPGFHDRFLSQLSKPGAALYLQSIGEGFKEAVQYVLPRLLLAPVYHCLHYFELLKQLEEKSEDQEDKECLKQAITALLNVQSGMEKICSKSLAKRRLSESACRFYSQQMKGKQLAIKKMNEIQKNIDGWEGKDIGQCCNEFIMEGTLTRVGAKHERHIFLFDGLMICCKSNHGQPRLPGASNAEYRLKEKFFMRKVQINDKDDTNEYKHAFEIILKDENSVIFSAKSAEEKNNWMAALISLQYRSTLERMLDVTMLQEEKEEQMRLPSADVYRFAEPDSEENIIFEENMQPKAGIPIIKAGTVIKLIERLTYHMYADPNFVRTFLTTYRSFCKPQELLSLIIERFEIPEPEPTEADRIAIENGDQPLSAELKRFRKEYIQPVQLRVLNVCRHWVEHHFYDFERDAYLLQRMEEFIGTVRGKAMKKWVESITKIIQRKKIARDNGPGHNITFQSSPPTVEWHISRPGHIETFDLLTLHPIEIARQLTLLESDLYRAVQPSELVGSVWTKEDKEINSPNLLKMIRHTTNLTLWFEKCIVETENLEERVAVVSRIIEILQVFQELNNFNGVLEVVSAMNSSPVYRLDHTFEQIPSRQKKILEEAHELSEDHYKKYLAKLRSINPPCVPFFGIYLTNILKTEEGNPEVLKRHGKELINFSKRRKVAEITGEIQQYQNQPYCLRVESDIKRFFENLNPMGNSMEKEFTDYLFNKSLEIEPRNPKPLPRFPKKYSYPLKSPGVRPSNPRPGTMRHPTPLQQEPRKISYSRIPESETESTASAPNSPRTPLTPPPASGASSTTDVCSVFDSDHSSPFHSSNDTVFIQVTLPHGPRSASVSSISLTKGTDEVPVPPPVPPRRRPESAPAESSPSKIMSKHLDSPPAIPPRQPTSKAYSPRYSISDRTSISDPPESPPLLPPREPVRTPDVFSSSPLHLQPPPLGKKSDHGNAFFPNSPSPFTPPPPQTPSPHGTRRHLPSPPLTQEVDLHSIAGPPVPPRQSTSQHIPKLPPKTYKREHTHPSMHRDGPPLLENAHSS
`C[C@@H](NC(=O)c1ccc(=O)n(-c2cccc(-c3cnnn3C)c2)c1)c1cccc(C(F)(F)CO)c1F` [Example 335, N-[(1R)-1-[3-(1,1-difluoro-2-hydroxy-ethyl)-2-fluoro-phenyl]ethyl]-1-[3-(3-methyltriazol-4-yl)phenyl]-6-oxo-pyridine-3-carboxamide] gave an IC50 of less than 1000 nM.
`C[C@@H](NC(=O)c1ccc(=O)n(-c2cccnc2F)n1)c1ccc(-c2cc(F)ccc2CN)s1` [Example 404] showed an IC50 of less than 1000 nM.
`C[C@@H](NC(=O)c1nn(-c2ccccc2F)c(=O)c2ccsc12)c1cc(N)cc(C(F)(F)F)c1` [Example 309, N-[(1R)-1-[3-amino-5-(trifluoromethyl)phenyl]ethyl]-5-(2-fluorophenyl)-4-oxo-thieno[2,3-d]pyridazine-7-carboxamide] gave an IC50 of less than 1000 nM.
In the case of `C[C@@H](NC(=O)c1ccc(=O)n(-c2ccccc2F)n1)c1cc(N)cc(C(F)(F)F)n1` [Example 395, N-[(1R)-1-[4-amino-6-(trifluoromethyl)-2-pyridyl]ethyl]-1-(2-fluorophenyl)-6-oxo-pyridazine-3-carboxamide], the IC50 is reported as 1000 to 10000 nM.
`CNCc1ccccc1-c1ccc([C@@H](C)NC(=O)c2nn(-c3cnn(C)c3)c(=O)c3ccsc23)s1` [Example 290, N-[(1R)-1-[5-[2-(methylaminomethyl)phenyl]-2-thienyl]ethyl]-5-(1-methylpyrazol-4-yl)-4-oxo-thieno[2,3-d]pyridazine-7-carboxamide] showed an IC50 of less than 1000 nM.
`C[C@@H](NC(=O)c1nn(-c2ccccc2)c(=O)cc1-c1ccccc1)c1cc(N)cc(C(F)(F)F)c1` [Example 368, N-[(1R)-1-[3-amino-5-(trifluoromethyl)phenyl]ethyl]-6-oxo-1,4-diphenyl-pyridazine-3-carboxamide] showed an IC50 of less than 1000 nM.
With `C[C@@H](NC(=O)c1ccc(=O)n(-c2cccnc2F)n1)c1ccc(-c2cc(F)ccc2CC#N)s1` [Example 415, N-[(1R)-1-[5-[2-(cyanomethyl)-5-fluorophenyl]-2-thienyl]ethyl]-1-(2-fluoro-3-pyridyl)-6-oxo-pyridazine-3-carboxamide] the IC50 was less than 1000 nM.
`C[C@@H](NC(=O)c1ccc(=O)n(-c2cccc(-c3cnn(C)c3)c2)n1)c1cc(N)cc(C(F)(F)F)c1` [Example 334, N-[(1R)-1-[3-amino-5-(trifluoromethyl)phenyl]ethyl]-1-[3-(1-methylpyrazol-4-yl)phenyl]-6-oxo-pyridazine-3-carboxamide] was tested, and the IC50 was less than 1000 nM.
With `C[C@@H](NC(=O)c1ccc(=O)n(-c2cccc(C(=O)N3CCNCC3)c2)n1)c1cc(N)cc(C(F)(F)F)c1` [Example 250, N-[(1R)-1-[3-amino-5-(trifluoromethyl)phenyl]ethyl]-6-oxo-1-[3-(piperazine-1-carbonyl)phenyl]pyridazine-3-carboxamide] the IC50 was less than 1000 nM.
`C[C@@H](NC(=O)c1ccc(=O)n(-c2ccccc2F)n1)c1cc(N)cc(C(F)F)c1` [Example 375, N-[(1R)-1-[3-amino-5-(difluoromethyl)phenyl]ethyl]-1-(2-fluorophenyl)-6-oxo-pyridazine-3-carboxamide] gave an IC50 of less than 1000 nM.
`C[C@@H](NC(=O)c1ccc(=O)n(-c2cccc(-c3cncn3C)c2)n1)c1cc(N)cc(C(F)(F)F)c1` [Example 320, N-[(1R)-1-[3-amino-5-(trifluoromethyl)phenyl]ethyl]-1-[3-(3-methylimidazol-4-yl)phenyl]-6-oxo-pyridazine-3-carboxamide] gave an IC50 of less than 1000 nM.
`C[C@@H](NC(=O)c1ccc(=O)n(-c2cccc(-c3ccn(C)n3)c2)n1)c1cc(N)cc(C(F)(F)F)c1` [Example 331, N-[(1R)-1-[3-amino-5-(trifluoromethyl)phenyl]ethyl]-1-[3-(1-methylpyrazol-3-yl)phenyl]-6-oxo-pyridazine-3-carboxamide] gave an IC50 of less than 1000 nM.

Same assay, conditions: read-out: KRAS ^G12C::SOS1 PPI assay (IC50 range, Grade); maximum concentration 3 µM, 8 concentrations, three replicates
`CNCc1ccc(F)cc1-c1ccc([C@@H](C)NC(=O)c2ccc(=O)n(-c3cccnc3O)n2)s1` [Example 408] gave an IC50 of less than 1000 nM.
